From article PMC6270924, “A New Urease Inhibitor from Viola betonicifolia” (Molecules, 2014)

Molecular target: jack bean urease (Canavalia ensiformis, UniProt P07374)
Assay: urease inhibition by indophenol (Weatherburn) ammonia assay; Lineweaver-Burk, secondary replot and Dixon plot kinetics (IC50 […])
Assay type: biochemical

Chain of jack bean urease (P07374 whole entry, looked up): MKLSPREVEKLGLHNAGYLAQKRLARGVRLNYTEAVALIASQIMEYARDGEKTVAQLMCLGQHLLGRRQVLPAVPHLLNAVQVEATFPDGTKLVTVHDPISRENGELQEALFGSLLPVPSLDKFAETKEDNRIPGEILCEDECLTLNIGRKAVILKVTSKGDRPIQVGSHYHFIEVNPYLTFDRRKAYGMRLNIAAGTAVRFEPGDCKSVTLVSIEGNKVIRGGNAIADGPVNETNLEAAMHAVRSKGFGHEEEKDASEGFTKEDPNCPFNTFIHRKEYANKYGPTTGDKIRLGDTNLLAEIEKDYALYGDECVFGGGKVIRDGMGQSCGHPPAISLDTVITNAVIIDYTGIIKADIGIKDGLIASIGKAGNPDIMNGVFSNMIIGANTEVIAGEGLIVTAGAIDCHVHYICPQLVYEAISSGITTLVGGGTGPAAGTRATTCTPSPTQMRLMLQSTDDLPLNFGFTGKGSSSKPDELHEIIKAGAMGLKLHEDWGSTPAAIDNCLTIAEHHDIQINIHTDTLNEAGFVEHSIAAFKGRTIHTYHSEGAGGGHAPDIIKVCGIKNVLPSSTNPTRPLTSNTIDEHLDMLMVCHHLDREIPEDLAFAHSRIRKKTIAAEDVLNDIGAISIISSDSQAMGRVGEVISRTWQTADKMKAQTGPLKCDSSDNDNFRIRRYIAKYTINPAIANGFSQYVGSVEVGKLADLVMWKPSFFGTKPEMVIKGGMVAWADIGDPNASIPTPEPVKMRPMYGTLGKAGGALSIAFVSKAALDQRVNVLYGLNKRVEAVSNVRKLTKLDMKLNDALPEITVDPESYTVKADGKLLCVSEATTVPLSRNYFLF

C=C[C@@H](C1=CC(=O)C=C(OC)C1=O)c1ccccc1 [compound 1, 3-methoxydalbergione]
Ki: 138.16 ± 0.06 µM
